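96-well plates; 48 h exposure; 5 concentrations. Endpoints by linear interpolation between flanking doses. Not reached: highest tested concentration assigned. TGI marks complete inhibition of growth.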
Tests used:
Assay in all cases: NCI tumour cell line growth inhibition, 48 h
HCT-116 colon = tested on: HCT-116 colon
SR leukemia = tested on: SR leukemia
RPMI-8226 leukemia = tested on: RPMI-8226 leukemia
HOP-62 NSCLC = tested on: HOP-62 NSCLC
SF-539 CNS = tested on: SF-539 CNS
UACC-257 melanoma = tested on: UACC-257 melanoma
SK-MEL-2 melanoma = tested on: SK-MEL-2 melanoma
EKVX NSCLC = tested on: EKVX NSCLC
MALME-3M melanoma = tested on: MALME-3M melanoma
M14 melanoma = tested on: M14 melanoma
SW-620 colon = tested on: SW-620 colon
SK-MEL-28 melanoma = tested on: SK-MEL-28 melanoma
HT29 colon = tested on: HT29 colon
CAKI-1 renal = tested on: CAKI-1 renal
OVCAR-5 ovarian = tested on: OVCAR-5 ovarian
SNB-78 CNS = tested on: SNB-78 CNS
SF-268 CNS = tested on: SF-268 CNS
SN12C renal = tested on: SN12C renal
SNB-19 CNS = tested on: SNB-19 CNS
UACC-62 melanoma = tested on: UACC-62 melanoma
U251 CNS = tested on: U251 CNS
HOP-92 NSCLC = tested on: HOP-92 NSCLC
DMS 114 small cell lung = tested on: DMS 114 small cell lung
M19-MEL melanoma = tested on: M19-MEL melanoma
TK-10 renal = tested on: TK-10 renal
SK-OV-3 ovarian = tested on: SK-OV-3 ovarian
786-0 renal = tested on: 786-0 renal
NCI-H23 lung = tested on: NCI-H23 lung
XF 498 CNS = tested on: XF 498 CNS
IGROV1 ovarian = tested on: IGROV1 ovarian
CCRF-CEM leukemia = tested on: CCRF-CEM leukemia
NCI-H460 lung = tested on: NCI-H460 lung
A498 renal = tested on: A498 renal
HCC-2998 colon = tested on: HCC-2998 colon
OVCAR-8 ovarian = tested on: OVCAR-8 ovarian
SF-295 CNS = tested on: SF-295 CNS
A549 NSCLC = tested on: A549 NSCLC
UO-31 renal = tested on: UO-31 renal
KM20L2 colon = tested on: KM20L2 colon
HOP-18 NSCLC = tested on: HOP-18 NSCLC
SNB-75 CNS = tested on: SNB-75 CNS
COLO 205 colon = tested on: COLO 205 colon
DLD-1 colon = tested on: DLD-1 colon
ACHN renal = tested on: ACHN renal
OVCAR-4 ovarian = tested on: OVCAR-4 ovarian
NCI-H522 lung = tested on: NCI-H522 lung
MOLT-4 leukemia = tested on: MOLT-4 leukemia
OVCAR-3 ovarian = tested on: OVCAR-3 ovarian
K-562 leukemia = tested on: K-562 leukemia
NCI-H226 lung = tested on: NCI-H226 lung
SK-MEL-5 melanoma = tested on: SK-MEL-5 melanoma
LOX IMVI melanoma = tested on: LOX IMVI melanoma
DMS 273 small cell lung = tested on: DMS 273 small cell lung
KM12 colon = tested on: KM12 colon
LXFL 529 NSCLC = tested on: LXFL 529 NSCLC
RXF 393 renal = tested on: RXF 393 renal
HL-60(TB) leukemia = tested on: HL-60(TB) leukemia
HCT-15 colon = tested on: HCT-15 colon

Structure (SMILES): Cn1cnc([N+](=O)[O-])c1Sc1nccn1-c1ccccc1
- TGI (HCT-116 colon): > 100 µM
- TGI (SR leukemia): 62.3 µM
- TGI (RPMI-8226 leukemia): > 100 µM
- TGI (HOP-62 NSCLC): > 100 µM
- TGI (SF-539 CNS): > 100 µM
- TGI (UACC-257 melanoma): > 100 µM
- TGI (SK-MEL-2 melanoma): 99.3 µM
- TGI (EKVX NSCLC): > 100 µM
- TGI (MALME-3M melanoma): 62.8 µM
- TGI (M14 melanoma): > 100 µM
- TGI (SW-620 colon): > 100 µM
- TGI (SK-MEL-28 melanoma): > 100 µM
- TGI (HT29 colon): > 100 µM
- TGI (CAKI-1 renal): > 100 µM
- TGI (OVCAR-5 ovarian): > 100 µM
- TGI (SNB-78 CNS): > 100 µM
- TGI (SF-268 CNS): > 100 µM
- TGI (SN12C renal): > 100 µM
- TGI (SNB-19 CNS): > 100 µM
- TGI (UACC-62 melanoma): > 100 µM
- TGI (U251 CNS): > 100 µM
- TGI (HOP-92 NSCLC): 81.1 µM
- TGI (DMS 114 small cell lung): 91.2 µM
- TGI (M19-MEL melanoma): > 100 µM
- TGI (TK-10 renal): > 100 µM
- TGI (SK-OV-3 ovarian): > 100 µM
- TGI (786-0 renal): > 100 µM
- TGI (NCI-H23 lung): 79.6 µM
- TGI (XF 498 CNS): > 100 µM
- TGI (IGROV1 ovarian): > 100 µM
- TGI (CCRF-CEM leukemia): > 100 µM
- TGI (NCI-H460 lung): > 100 µM
- TGI (A498 renal): > 100 µM
- TGI (HCC-2998 colon): > 100 µM
- TGI (OVCAR-8 ovarian): > 100 µM
- TGI (SF-295 CNS): > 100 µM
- TGI (A549 NSCLC): > 100 µM
- TGI (UO-31 renal): > 100 µM
- TGI (KM20L2 colon): > 100 µM
- TGI (HOP-18 NSCLC): 54.3 µM
- TGI (SNB-75 CNS): > 100 µM
- TGI (COLO 205 colon): > 100 µM
- TGI (DLD-1 colon): > 100 µM
- TGI (ACHN renal): > 100 µM
- TGI (OVCAR-4 ovarian): > 100 µM
- TGI (NCI-H522 lung): 24.5 µM
- TGI (MOLT-4 leukemia): 74.1 µM
- TGI (OVCAR-3 ovarian): > 100 µM
- TGI (K-562 leukemia): > 100 µM
- TGI (NCI-H226 lung): > 100 µM
- TGI (SK-MEL-5 melanoma): > 100 µM
- TGI (LOX IMVI melanoma): 46.9 µM
- TGI (DMS 273 small cell lung): > 100 µM
- TGI (KM12 colon): > 100 µM

Structure (SMILES): O=[N+]([O-])c1cccc(C=NC23CC4CC(CC(C4)C2)C3)c1
- TGI (HCT-116 colon): > 100 µM
- TGI (HOP-62 NSCLC): > 100 µM
- TGI (SF-539 CNS): > 100 µM
- TGI (UACC-257 melanoma): > 100 µM
- TGI (SK-MEL-2 melanoma): > 100 µM
- TGI (EKVX NSCLC): > 100 µM
- TGI (MALME-3M melanoma): > 100 µM
- TGI (M14 melanoma): > 100 µM
- TGI (SW-620 colon): > 100 µM
- TGI (SK-MEL-28 melanoma): > 100 µM
- TGI (HT29 colon): > 100 µM
- TGI (CAKI-1 renal): > 100 µM
- TGI (OVCAR-5 ovarian): > 100 µM
- TGI (SNB-78 CNS): > 100 µM
- TGI (SF-268 CNS): > 100 µM
- TGI (SN12C renal): > 100 µM
- TGI (SNB-19 CNS): > 100 µM
- TGI (UACC-62 melanoma): > 100 µM
- TGI (U251 CNS): > 100 µM
- TGI (HOP-92 NSCLC): > 100 µM
- TGI (DMS 114 small cell lung): > 100 µM
- TGI (M19-MEL melanoma): > 100 µM
- TGI (TK-10 renal): > 100 µM
- TGI (SK-OV-3 ovarian): > 100 µM
- TGI (LXFL 529 NSCLC): > 100 µM
- TGI (786-0 renal): > 100 µM
- TGI (NCI-H23 lung): > 100 µM
- TGI (XF 498 CNS): > 100 µM
- TGI (IGROV1 ovarian): > 100 µM
- TGI (CCRF-CEM leukemia): > 100 µM
- TGI (NCI-H460 lung): > 100 µM
- TGI (A498 renal): > 100 µM
- TGI (RXF 393 renal): > 100 µM
- TGI (HCC-2998 colon): > 100 µM
- TGI (HL-60(TB) leukemia): 65.6 µM
- TGI (OVCAR-8 ovarian): > 100 µM
- TGI (SF-295 CNS): > 100 µM
- TGI (A549 NSCLC): > 100 µM
- TGI (UO-31 renal): > 100 µM
- TGI (KM20L2 colon): > 100 µM
- TGI (HOP-18 NSCLC): > 100 µM
- TGI (SNB-75 CNS): > 100 µM
- TGI (COLO 205 colon): > 100 µM
- TGI (DLD-1 colon): > 100 µM
- TGI (ACHN renal): > 100 µM
- TGI (OVCAR-4 ovarian): > 100 µM
- TGI (NCI-H522 lung): > 100 µM
- TGI (MOLT-4 leukemia): > 100 µM
- TGI (OVCAR-3 ovarian): > 100 µM
- TGI (HCT-15 colon): > 100 µM
- TGI (K-562 leukemia): > 100 µM
- TGI (NCI-H226 lung): > 100 µM
- TGI (SK-MEL-5 melanoma): > 100 µM
- TGI (LOX IMVI melanoma): > 100 µM
- TGI (DMS 273 small cell lung): > 100 µM
- TGI (KM12 colon): > 100 µM

From PubChem BioAssay (NCI)
